Results: patent US8815800B2, “Moisturizing composition comprising an aminopeptide mixture” (Conopco, Inc., priority 2011, dated 2014)

Tests used:
[1] = tested on: Ex-vivo porcine skin; assay: Skin moisturization: Corneometer hydration of treated ex-vivo porcine skin
Experimental: Skin moisturization was assessed in terms of hydration, measured using a Corneometer (Courage+Khazaka, Germany, model CM 825, consistent with the Sorption Desorption Test described in Bioengineering of the Skin:Water and the Stratum Corneum, by G. Borroni et al., Ed by P. Elsner et al., CBC Press, Chapter 18, 1995). Instrument readings typically vary from 5 to 120 units, with small numbers (˜6) typical for nails, higher numbers typical for dry skin (˜10-20), medium numbers typical for hydrated skin (˜40) and large numbers typical for skin immediately after application of water-based humectants (above 100).
Ex-vivo porcine skin (area 1.5 cm×1.5 cm) was treated with 0.1 ml of the compositions identified in Table 1 as well as a 10% glycerol solution and deionized water as the control. Readings were taken before treatments as a baseline and at least 5 measurements were made at the same position at the time intervals shown in the table.
The relative hydration numbers were calculated as 100%*(Ct-C0)/C0, where C0 is the reading before the treatment, and Ct is the reading taken at the time t after treatment.

[2] = tested on: stratum corneum; assay: Hydration of stratum corneum: water uptake in sorption-desorption cycle (Dynamic Water Sorption Analyzer); settings: 0.12 mL applied
Experimental: The hydration of the stratum corneum was estimated from hysteresis observed during the sorption-desorption cycle. Disks of stratum corneum (6 mm in diameter) were treated with 0.06 mL aminopeptide mixture, glycerol or water at both sides and dried. The samples were then placed in a Dynamic Water Sorption Analyzer and with controlled humidity. When the humidity was increased in small steps (Delta RH=10%) water uptake was measured after 3 hours equilibration for each step. Water uptake is defined as a mass of water per the dry mass of stratum corneum. Table 3 depicts the values of water uptake for sorption and desorption for stratum corneum treated with aminopeptide mixture consistent with this invention (Sample 3), glycerol and stratum corneum treated with deionized water.

[3] = Glass transition temperature by differential scanning calorimetry; type: physicochemical
Experimental: Glass transition temperatures were measured using differential scanning calorimetry (DSC Q1000, TA Instruments) at a heating rate of 10 K/min from −80 to +40° C. Glass transition temperatures were determined using TA instrument software (TA Advantage) from the middle of the heat capacity curve. The compositions comprising aminopeptide mixtures consistent with this invention were assessed against glycerol and other compositions with amino acids. Water concentration means the water concentration of the composition at the time the glass transition temperature was obtained. Water was evaporated from contained compositions by storing the same at room temperature at a relative humidity of about 33%.

## OCC(O)CO [Glycerol (10%), glycerol]
[1]; 10 minutes after treatment with 0.1 ml
  Relative Hydration: 23%
[1]; 30 minutes after treatment with 0.1 ml
  Relative Hydration: 11%
[1]; 60 minutes after treatment with 0.1 ml
  Relative Hydration: 10%
[1]; after 10, 30, and 60 minutes of application to model skin, in words
  change in hydration with respect to the initial hydration number: lower
[2]; relative humidity 20.8 %
  Water uptake, desorption: 87.3 mg/g
  Water uptake, sorption: 122.22 mg/g
  water uptake difference (desorption-sorption): 34.92 mg/g
[2]; relative humidity 31 %
  Water uptake, desorption: 135.34 mg/g
  Water uptake, sorption: 161.38 mg/g
  water uptake difference (desorption-sorption): -26.04 mg/g
[2]; relative humidity 41 %
  Water uptake, desorption: 192.06 mg/g
  Water uptake, sorption: 209.84 mg/g
  water uptake difference (desorption-sorption): -17.78 mg/g
[2]; relative humidity 51 %
  Water uptake, desorption: 261.90 mg/g
  Water uptake, sorption: 275.13 mg/g
  water uptake difference (desorption-sorption): -13.23 mg/g
[2]; relative humidity 60.2 %
  Water uptake, desorption: 366.67 mg/g
  Water uptake, sorption: 366.67 mg/g
  water uptake difference (desorption-sorption): 0 mg/g
[2]; relative humidity 70.35 %
  Water uptake, desorption: 524.34 mg/g
  Water uptake, sorption: 524.34 mg/g
  water uptake difference (desorption-sorption): 0 mg/g
[3]; water concentration 0 % in composition at reading
  Glass transition temperature: −83 °C
[3]; water concentration 40 % in composition at reading
  Glass transition temperature: −108 °C
